According to patent US20250230193A1, “CYCLIC COMPOUND HAVING SELECTIVE KRAS INHIBITORY EFFECT ON HRAS AND NRAS” (CHUGAI SEIYAKU KABUSHIKI KAISHA, priority 2022, published 2025):
Where a SMILES comes first, the peptide text is derived from it. Bridges are numbered along the chain shown (N, C = ends). [ ]: non-standard residue; d: D form. hPhe(3-Cl-4-CF3) = N[C@@H](CCc1ccc(C(F)(F)F)c(Cl)c1)C(=O)O; NPrPhe(4-CF3) = CCCN[C@@H](Cc1ccc(C(F)(F)F)cc1)C(=O)O; NMeGly(cPent) = CN[C@H](C(=O)O)C1CCCC1; Pro(4,4-F2) = O=C(O)[C@@H]1CC(F)(F)CN1; NMeD = CN[C@@H](CC(=O)O)C(=O)O; NMeL = CN[C@@H](CC(C)C)C(=O)O; Ac5c = NC1(C(=O)O)CCCC1; Sar = CNCC(=O)O

Assays:
[1] = target: GDP-bound HRAS wild-type protein (Homo sapiens, UniProt P01112); assay: Binding to HRAS by surface plasmon resonance (SPR), Single Cycle Kinetics; conditions: for HRAS/KRAS (ratio of KD value with respect to HRAS to KD value with respect to KRAS): GDP-bound HRAS wild-type vs GDP-bound KRAS wild-type
[2] = target: GDP-bound NRAS wild-type protein (Homo sapiens, UniProt P01111); assay: Binding to NRAS by surface plasmon resonance (SPR), Single Cycle Kinetics; conditions: for NRAS/KRAS (ratio of KD value with respect to NRAS to KD value with respect to KRAS): GDP-bound NRAS wild-type vs GDP-bound KRAS wild-type
Sequence of GDP-bound NRAS wild-type protein (P01111 whole entry): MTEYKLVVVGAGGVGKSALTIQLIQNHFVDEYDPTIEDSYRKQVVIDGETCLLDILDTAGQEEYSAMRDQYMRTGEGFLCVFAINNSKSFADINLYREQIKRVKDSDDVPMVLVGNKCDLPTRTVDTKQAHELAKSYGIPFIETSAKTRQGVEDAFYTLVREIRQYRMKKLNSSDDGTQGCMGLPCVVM

Sequence of GDP-bound HRAS wild-type protein (P01112 whole entry): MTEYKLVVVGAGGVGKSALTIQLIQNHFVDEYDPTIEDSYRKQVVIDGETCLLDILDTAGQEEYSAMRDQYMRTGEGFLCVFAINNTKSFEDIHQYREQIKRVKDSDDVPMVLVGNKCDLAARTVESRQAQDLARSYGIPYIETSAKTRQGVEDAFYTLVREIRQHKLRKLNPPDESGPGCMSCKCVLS

CC[C@H](C)[C@@H]1NC(=O)[C@H](COC)N(C)C(=O)C[C@@H](C(=O)N2CCOCC2)N(C)C(=O)[C@H](C2CCCC2)N(C)C(=O)C2(CCC2)NC(=O)[C@@H]2CC(F)(F)CN2C(=O)[C@H](CCc2cc(F)c(C(F)(F)F)c(F)c2)NC(=O)CN(C)C(=O)[C@H](Cc2ccc(C(F)(F)F)cc2)N2CCCCC[C@@H](C2=O)N(C)C(=O)CN(C)C1=O [PP0834]
HRAS/KRAS (ratio of KD value with respect to HRAS to KD value with respect to KRAS) ([1]; KD ratio, SPR): B (a compound having 3 or more and less than 10 is denoted as B) | NRAS/KRAS (ratio of KD value with respect to NRAS to KD value with respect to KRAS) ([2]; KD ratio, SPR): A (a compound having 10 or more and less than 20 is denoted as A)

CCO[C@@H]1C[C@H]2C(=O)NC3(CCC3)C(=O)N(C)[C@@H](C3CCCC3)C(=O)N(C)[C@H](C(=O)N(C)C)CC(=O)N(C)[C@@H](CC)C(=O)N[C@@H]([C@@H](C)CC)C(=O)N(C)CC(=O)N(C)[C@H]3CCCCN(C3=O)[C@@H](Cc3ccc(C(F)(F)F)cc3)C(=O)N(C)CC(=O)N[C@@H](CCc3ccc(C(F)(F)F)c(OC)c3)C(=O)N2C1 [PP0884]
HRAS/KRAS (ratio of KD value with respect to HRAS to KD value with respect to KRAS) ([1]; KD ratio, SPR): C (A compound having a KD ratio of 0.1 or more and less than 3 is denoted as C) | NRAS/KRAS (ratio of KD value with respect to NRAS to KD value with respect to KRAS) ([2]; KD ratio, SPR): C (A compound having a KD ratio of 0.1 or more and less than 3 is denoted as C)

CCO[C@@H]1C[C@H]2C(=O)NC3(CCC3)C(=O)N(C)[C@@H](C3CCCC3)C(=O)N(C)[C@H](C(=O)N3CCOCC3)CC(=O)N(C)[C@@H](CC3CC3)C(=O)N[C@@H]([C@@H](C)CC)C(=O)N(C)CC(=O)N(C)[C@H]3CCCCCN(C3=O)[C@@H](Cc3ccc(C(F)(F)F)cc3)C(=O)N(C)CC(=O)N[C@@H](CCc3cc(F)c(C(F)(F)F)c(F)c3)C(=O)N2C1 [PP0682]
HRAS/KRAS (ratio of KD value with respect to GDP-bound HRAS wild-type protein to KD value with respect to KRAS) ([1]; SPR): B (a compound having 3 or more and less than 10 is denoted as B) | NRAS/KRAS (ratio of KD value with respect to GDP-bound NRAS wild-type protein to KD value with respect to KRAS) ([2]; SPR): B (a compound having 3 or more and less than 10 is denoted as B)

CCCN1C(=O)CN(C)C(=O)CNC(=O)[C@H]([C@@H](C)CC)NC(=O)[C@H](CC(C)C)N(C)C(=O)C[C@@H](C(=O)N(C)C)N(C)C(=O)[C@H](C2CCCC2)N(C)C(=O)C2(CCCC2)NC(=O)[C@@H]2CC(F)(F)CN2C(=O)[C@H](CCc2ccc(C(F)(F)F)c(Cl)c2)NC(=O)CN(C)C(=O)[C@@H]1Cc1ccc(C(F)(F)F)cc1 [PP0419] ([NMeL]IG[Sar][NPrPhe(4-CF3)][Sar][hPhe(3-Cl-4-CF3)][Pro(4,4-F2)][Ac5c][NMeGly(cPent)][NMeD]-NMe2; lactam N-11)
HRAS/KRAS (ratio of KD value with respect to GDP-bound HRAS wild-type protein to KD value with respect to KRAS) ([1]; SPR): C (A compound having a KD ratio of 0.1 or more and less than 3 is denoted as C) | NRAS/KRAS (ratio of KD value with respect to GDP-bound NRAS wild-type protein to KD value with respect to KRAS) ([2]; SPR): B (a compound having 3 or more and less than 10 is denoted as B)

CCC[C@H]1C(=O)N[C@@H]([C@@H](C)CC)C(=O)N2CCC[C@H]2C(=O)N(C)[C@H]2C/C=C\CCN(C2=O)[C@@H](CC2CCCCC2)C(=O)N(C)CC(=O)N[C@@H](CCc2ccc(C(F)(F)F)c(OC)c2)C(=O)N2C[C@@H](C)C[C@H]2C(=O)N(C)C2(CCC2)C(=O)N(C)[C@@H](C2CCCC2)C(=O)N(C)[C@H](C(=O)N(C)C)CC(=O)N1C [PP2374]
HRAS/KRAS (ratio of KD value with respect to HRAS to KD value with respect to KRAS) ([1]; SPR): A (a compound having 10 or more and less than 20 is denoted as A) | NRAS/KRAS (ratio of KD value with respect to NRAS to KD value with respect to KRAS) ([2]; SPR): A (a compound having 10 or more and less than 20 is denoted as A)

CC[C@H](C)[C@@H]1NC(=O)[C@H](CC(C)C)N(C)C(=O)C[C@@H](C(=O)N(C)C)N(C)C(=O)[C@H](C2CCCC2)N(C)C(=O)C2(CCC2)NC(=O)[C@@H]2[C@@H](OCC(F)F)CCN2C(=O)[C@H](CCc2cc(F)c(C(F)(F)F)c(F)c2)NC(=O)CN(C)C(=O)[C@H](Cc2ccc(C(F)(F)F)cc2)N2CC/C=C\C[C@@H](C2=O)N(C)C(=O)CN(C)C1=O [PP1534]
HRAS/KRAS (ratio of KD value for GDP-bound HRAS wild-type protein to KD value for KRAS) ([1]; SPR, KD ratio class): A (a compound having 10 or more and less than 20 is denoted as A) | NRAS/KRAS (ratio of KD value for GDP-bound NRAS wild-type protein to KD value for KRAS) ([2]; SPR, KD ratio class): AA (a compound having 20 or more is denoted as AA)

CCCC[C@H]1C(=O)N[C@@H]([C@@H](C)CC)C(=O)N(C)CC(=O)N(C)[C@H]2C/C=C\CCN(C2=O)[C@@H](Cc2ccc(C(F)(F)F)cc2)C(=O)N(C)CC(=O)N[C@@H](CCc2ccc(C(F)(F)F)c(Cl)c2)C(=O)N2C[C@H](OCC)C[C@H]2C(=O)NC2(CCC2)C(=O)N(C)[C@@H](C2CCCC2)C(=O)N(C)[C@H](C(=O)N(C)CC)CC(=O)N1C [PP2841]
HRAS/KRAS (ratio of KD value with respect to GDP-bound HRAS wild-type protein to KD value with respect to KRAS) ([1]; class symbols): A (a compound having 10 or more and less than 20 is denoted as A) | NRAS/KRAS (ratio of KD value with respect to GDP-bound NRAS wild-type protein to KD value with respect to KRAS) ([2]; class symbols): A (a compound having 10 or more and less than 20 is denoted as A)
